Patent publication US20260256793A1, “ALTERATION OF F-BOX AND WD REPEAT DOMAIN CONTAINING 7 (FBXW7) GENE AS A PREDICTIVE BIOMARKER FOR TREATING CANCER WITH WEE1 INHIBITORS” (Zeno Management, Inc., priority 2023, published 2026)

How the values were obtained:
[1] = tested on: Parental DLD-1 colorectal cancer cells; test: Western blot (Jess) of WEE1, pCDK1, replication stress, DNA damage and apoptosis markers after Azenosertib treatment, parental cells; assay type: cell-based
Experimental: (§1) FIG. 8 is a Western Blot image showing levels of FBXW7, WEE1 kinase, Cyclin E1, and other replication stress, DNA damage, apoptosis markers in DLD-1 parental and DLD-1 FBXW7-knockout colorectal cancer cells treated with DMSO (negative control) and 250 nM, 1 μM, and 10 µM of Azenosertib for 8 hours, 24 hours, or 48 hours.
(§2) Parental DLD-1 colorectal cancer cells or FBXW7 knockout (FBXW7-KO) DLD-1 cells (Creative Biogene, Cat No. CSC-RT0018, Lot No. 081723ZYX) were cultured in RPMI 1640 medium (ATCC modification) (Giboco) supplemented with 10% FBS (Gibco) and 1% penicillin-streptomycin (Gibco). Cells were maintained at 37° C. in an atmosphere containing 5% CO2.
(§3) The cultured cells were seeded at optimal density in 6-well plates, allowed to adhere overnight, and then treated with Azenosertib (250 nM, 1 μM, or 10 μM), with DMSO treatment as a negative control. After 8, 24, and 48 hours of drug exposure, cells were harvested, rinsed with PBS, lysed with cold RIPA buffer (Sigma) containing protease and phosphatase inhibitors for 15 minutes, and centrifuged at 4° C., 15,000 rpm for 15 minutes. Protein concentrations were measured using the Pierce BCA Protein Assay kit (Thermo Fisher). Jess™ plates were loaded and run according to the manufacturer's instructions (Bio-Techne). Primary antibodies anti-FBXW7 and anti-Cyclin E1 were purchased from Abcam, anti-phospho-H3, anti-Vinculin, anti-γH2AX, anti-phospho-CDK1, anti-phsopho-Chk1, anti-cleaved caspase 3, anti-Wee1, and anti-CDK1 were purchased from Cell Signaling Technology.

[2] = tested on: FBXW7 knockout (FBXW7-KO) DLD-1 cells; test: Western blot (Jess) of WEE1, pCDK1, replication stress, DNA damage and apoptosis markers after Azenosertib treatment, FBXW7 knockout cells; assay type: cell-based
Experimental: as §1, §2, §3

[3] = tested on: solid tumor patients (HGSOC, USC, endometrial, colorectal, peritoneum cancer), FBXW7-mutated or wild-type; test: Clinical outcome of Azenosertib monotherapy by FBXW7 mutational status (composite cohort of 356 patients); assay type: in vivo, human; settings: daily dose at least 300 mg; for Objective Response Rate (ORR): continuous or intermittent schedule, p<0.02, FIG. 9A; for target lesion size reduction (median): p<0.05, FIG. 9B
Experimental: FIG. 9B is a waterfall plot of the tumor size change in FBXW7-mutated or wild-type human subjects.
The predictive value of FBXW7 was investigated in a composite cohort of 356 patients treated with a daily dose of at least 300 mg of Azenosertib monotherapy on a continuous dosing schedule or an intermittent dosing schedule (e.g., 5 days on/2 days off, 4 days on/3 days off) and profiled with high-throughput DNA sequencing. Specifically, this composite cohort of patients was treated with a daily dose of 300 mg, or 350 mg, or 400 mg, or 450 mg of Azenosertib monotherapy on a continuous dosing schedule (i.e., QD, 7 days a week without any intermission), a daily dose of 300 mg, or 350 mg, or 400 mg, or 450 mg, or of 500 mg of Azenosertib monotherapy on an intermittent 5 days on/2 days off or 4 days on/3 days off schedule). The source of mutational status was a combination of local (reports from clinical sites) or central testing from either tumor or cell-free DNA. The mutational status was determined as mutated when at least one of the reports reported a pathogenic mutation and unmutated (wild-type) when all reports covering the FBXW7 gene were negative. The cohort investigated consists of patients diagnosed with high-grade serous ovarian carcinoma or HGSOC (N=211), uterine serous carcinoma or USC (N=57) or other solid tumor cancers including endometrial cancer, colorectal cancer, and peritoneum cancer […]. The patients mutated for FBXW7 (N=17-including […], 7 USC, 2 endometrial and 3 colorectal), were more likely to respond to Azenosertib monotherapy (Objective Response Rate or ORR=41% (7/17) for FBXW7-mutated patients vs. 16% (53/339) for FBXW7-wild-type patients; p<0.02—FIG. 9A [BOR=Best Overall Response; CR=Complete Response; PR—Partial Response; uPR=Unconfirmed Partial Response; SD=Stable Disease; PD=Progressive Disease).

[4] = 250 nM, 1 μM, 10 μM, 8, 24, 48 hours, vs DMSO, FIG. 8
[5] = FBXW7-KO DLD-1, 250 nM, 1 μM, 10 μM, 8, 24, 48 hours, vs DMSO, FIG. 8
[6] = FBXW7-KO DLD-1, 10 μM, more significant DNA damage compared to parental cell line

Question: Which WEE1 levels [1, 4] does the source give for `C=CCn1c(=O)c2cnc(Nc3ccc(N4CCN(C)CC4)cc3)nc2n1-c1ccc2c(n1)[C@@](O)(CC)CC2` [Azenosertib] here?
Answer: dose-dependent decrease

Question: And the “phospho-CDK1 (pCDK1) levels” value [1, 4]?
Answer: dose-dependent decrease

Question: What about the pCDK1 level ([1]; 10 μM, 48 hours) of the same compound?
Answer: decreasing significantly

Question: What about the WEE1 levels [2, 5] of the same compound?
Answer: dose-dependent decrease

Question: What about the “phospho-CDK1 (pCDK1) levels” value [2, 5] of the same compound?
Answer: dose-dependent decrease

Question: And the pCDK1 level ([2]; FBXW7-KO DLD-1, 10 μM, 48 hours)?
Answer: decreasing significantly

Question: What about the “gamma-H2AX (γH2AX) levels (DNA damage)” value [2, 6] of the same compound?
Answer: increase

Question: What about the “phospho-Chk1 (pChk1) levels (DNA damage)” value [2, 6] of the same compound?
Answer: increase

Question: And the “cleaved caspase 3 levels (apoptosis)” value ([2]; FBXW7-KO DLD-1, e.g. 10 µM at 24 hours and 48 hours, compared to parental cell line)?
Answer: increase

Question: And the “sensitivity to treatment with Azenosertib” value ([2]; FBXW7-KO cells compared to the parental cell line)?
Answer: more sensitive

Question: And the “Objective Response Rate (ORR)” value ([3]; FBXW7-mutated patients (7/17))?
Answer: 41%

Question: And the “target lesion size reduction (median)” value ([3]; FBXW7-mutated patients)?
Answer: −41%

Question: What about the “Objective Response Rate (ORR)” value ([3]; FBXW7-wild-type patients (53/339)) of the same compound?
Answer: 16%

Question: And the “target lesion size reduction (median)” value ([3]; second-named group, FBXW7-wild-type patients)?
Answer: −8%
